The source of these data is ChEMBL document CHEMBL1165868, “Synthesis and antimicrobial activity of cholic acid hydrazone analogues” (2010).

What all share (type): functional
For one assay, the system named is Escherichia coli. The assay can be described thus: Antimicrobial activity against Escherichia coli after 24 hrs.
The next assay concerns Pseudomonas aeruginosa. The assay can be described thus: Antimicrobial activity against Pseudomonas aeruginosa after 24 hrs.
For another assay, the system named is Klebsiella aerogenes. Description: Antimicrobial activity against Enterobacter aerogenes after 24 hrs.
The test system of another assay is Staphylococcus aureus. Description: Antimicrobial activity against Staphylococcus aureus after 24 hrs.
The subject of a further assay is Enterococcus faecalis. Description: Antimicrobial activity against Enterococcus faecalis after 24 hrs.
For another assay, the system named is Priestia megaterium. The assay can be described thus: Antimicrobial activity against Bacillus megaterium after 24 hrs.

Values after ≈ are worked out from the molar mass of the structure shown. Active and inactive are the calls of the source. The calls are words filed in the database; no cut-off is given here.

In general, MIC refers to the lowest concentration found to suppress growth.

For `C[C@H](CCC(=O)O)[C@H]1CC[C@H]2[C@@H]3[C@H](O)C[C@@H]4C[C@H](O)CC[C@]4(C)[C@H]3C[C@H](O)[C@]12C` [CHOLIC ACID], the MIC in the assay on Escherichia coli was 7.81 µg/mL (≈ 19.1 µM); against Pseudomonas aeruginosa, 15.6 µg/mL (≈ 38.3 µM); in the assay with Enterococcus faecalis, 31.2 µg/mL (≈ 76.5 µM). Also, the MIC entry in the assay on Klebsiella aerogenes, in the assay with Staphylococcus aureus and with Priestia megaterium was “inactive” throughout.
